Assays:
[1] = horses, oral, 1 mg pyrimethamine/kg once a day for 10 days; cited from earlier work
[2] = test system: Plasmodium berghei yoelii; details: rodent malaria; cited from earlier work
Sarcocystis neurona = details: EPM in equines; sulfadiazine as the sulfonamide given with pyrimethamine
Procedure: The amounts of each component are based on a liquid suspension having a total volume of about 1 liter. As mentioned above, a useful dosage, e.g., for a 1,000 pound horse infected with Sarcocystis neurona (as evidenced by the presence of the protozoan in a sample from the subject's cerebrospinal fluid) is about 30 mL of the suspension, once a day, given on an empty stomach in the morning.

Question: Which toxicological problem [1] does the source give for CCc1nc(N)nc(N)c1-c1ccc(Cl)cc1 [pyrimethamine] here?
Answer: does not present a serious toxicological problem

Question: For COc1cc(NC(C)CCCN)c2ncccc2c1 (stereo not shown) [Primaquine diphosphate], which causal prophylactic activity [2] is on record?
Answer: causal prophylactic activity

Question: For Nc1ccc(S(=O)(=O)Nc2ncccn2)cc1 [sulfadiazine], which causal prophylactic activity [2] is on record?
Answer: causal prophylactic activity

Question: What about the rate of efficacy (Sarcocystis neurona) of the same compound?
Answer: > 70%

— patent US6448252B1, “Treatment of equine protozoal myeloencephalitis” (IDEXX Pharmaceuticals, Inc., priority 1996, dated 2002)
